Test results taken from US9955691B2, “Macrocyclic picolinamides as fungicides” (DOW AGROSCIENCES LLC, priority 2014, dated 2018).
Read-outs that look alike come from different tables or passages of the source.

What was measured:
[1] = test system: Mycosphaerella graminicola; Anamorph: Septoria tritici; assay: Fungicidal activity: Leaf Blotch of Wheat (SEPTTR); assay type: in vivo; conditions: Zymoseptoria tritici, wheat leaf blotch; for pest or weed control at 121.5 g/ha: Low Volume (121.5 g/H); for pest or weed control at 100 µg/mL: High Volume (100 ppm)
Method: Evaluation of Fungicidal Activity: Leaf Blotch of Wheat (Mycosphaerella graminicola; Anamorph: Septoria tritici; Bayer Code […]) Technical grades of materials were dissolved in acetone, which were then mixed with nine volumes of water containing 110 ppm Triton X-100. The fungicide solutions were applied onto wheat seedlings using an automated booth sprayer to run-off. All sprayed plants were allowed to air dry prior to further handling. All fungicides were evaluated using the aforementioned method for their activity vs. all target diseases, unless stated otherwise. Wheat leaf blotch and brown rust activity were also evaluated using track spray applications, in which case the fungicides were formulated as EC formulations, containing 0.1% Trycol 5941 in the spray solutions. Wheat plants (variety Yuma) were grown from seed in a greenhouse in 50% mineral soil/50% soil-less Metro mix until the first leaf was fully emerged, with 7-10 seedlings per pot. These plants were inoculated with an aqueous spore suspension of Septoria tritici either prior to or after fungicide treatments. After inoculation the plants were kept in 100% relative humidity (one day in a dark dew chamber followed by two to three days in a lighted dew chamber at 20° C.) to permit spores to germinate and infect the leaf. The plants were then transferred to a greenhouse set at 20° C. for disease to develop. When disease symptoms were fully expressed on the 1st leaves of untreated plants, infection levels were assessed on a scale of 0 to 100 percent disease severity. Percent disease control was calculated using the ratio of disease severity on treated plants relative to untreated plants.

Puccinia triticina = assay: Fungicidal activity: Wheat Brown Rust (PUCCRT); assay type: in vivo; conditions: for pest or weed control at 121.5 g/ha: Low Volume (121.5 g/H); for pest or weed control at 100 µg/mL: High Volume (100 ppm)
Method: Technical grades of materials were dissolved in acetone, which were then mixed with nine volumes of water containing 110 ppm Triton X-100. The fungicide solutions were applied onto wheat seedlings using an automated booth sprayer to run-off. All sprayed plants were allowed to air dry prior to further handling. All fungicides were evaluated using the aforementioned method for their activity vs. all target diseases, unless stated otherwise. Wheat leaf blotch and brown rust activity were also evaluated using track spray applications, in which case the fungicides were formulated as EC formulations, containing 0.1% Trycol 5941 in the spray solutions. Wheat plants (variety Yuma) were grown from seed in a greenhouse in 50% mineral soil/50% soil-less Metro mix until the first leaf was fully emerged, with 7-10 seedlings per pot. These plants were inoculated with an aqueous spore suspension of Septoria tritici either prior to or after fungicide treatments. After inoculation the plants were kept in 100% relative humidity (one day in a dark dew chamber followed by two to three days in a lighted dew chamber at 20° C.) to permit spores to germinate and infect the leaf. The plants were then transferred to a greenhouse set at 20° C. for disease to develop. When disease symptoms were fully expressed on the 1st leaves of untreated plants, infection levels were assessed on a scale of 0 to 100 percent disease severity. Percent disease control was calculated using the ratio of disease severity on treated plants relative to untreated plants. Evaluation of Fungicidal Activity: Wheat Brown Rust (Puccinia triticina; Synonym: Puccinia recondite f. Sp. Tritici; Bayer Code PUCCRT) Wheat plants (variety Yuma) were grown from seed in a greenhouse in 50% mineral soil/50% soil-less Metro mix until the first leaf was fully emerged, with 7-10 seedlings per pot. These plants were inoculated with an aqueous spore suspension of Puccinia triticina either prior to or after fungicide treatments. After inoculation the plants were kept in a dark dew room at 22° C. with 100% relative humidity overnight to permit spores to germinate and infect the leaf. The plants were then transferred to a greenhouse set at 24° C. for disease to develop. Fungicide formulation, application and disease assessment followed the procedures as described in the Example A.

[2] = 24 h, 1 Day Protectant, read-out: SEPTTR 1 DP disease control
[3] = 72 h, 3 Day Curative, read-out: SEPTTR 3 DC disease control
[4] = 24 h, 1 Day Protectant, read-out: PUCCRT 1 DP disease control
[5] = 72 h, 3 Day Curative, read-out: PUCCRT 3 DC disease control

Compound | pest or weed control at 121.5 g/ha [1, 2] [%] | pest or weed control at 121.5 g/ha [1, 3] [%] | pest or weed control at 121.5 g/ha (Puccinia triticina; [4]) [%] | pest or weed control at 121.5 g/ha (Puccinia triticina; [5]) [%] | pest or weed control at 100 µg/mL [1, 2] [%] | pest or weed control at 100 µg/mL [1, 3] [%] | pest or weed control at 100 µg/mL (Puccinia triticina; [4]) [%] | pest or weed control at 100 µg/mL (Puccinia triticina; [5]) [%]
CCC[C@H]1COC[C@H](NC(=O)c2nccc(OC)c2OCOC(=O)COCC)C(=O)O[C@@H](C)[C@@H]1Cc1ccccc1 [compound 25] | > 70 | > 70 | > 70 | > 70 | – | – | – | –
COc1ccnc(C(=O)N[C@H]2COC[C@H](Cc3ccc(Cl)cc3)[C@@H](Cc3ccccc3)[C@H](C)OC2=O)c1OCOC(C)=O [compound 47] | > 70 | > 70 | > 70 | > 70 | – | – | – | –
COc1ccnc(C(=O)N[C@H]2COC[C@H](CCC(C)C)[C@@H](CCc3ccccc3)[C@H](C)OC2=O)c1O [compound 129] | – | – | – | – | > 70 | > 70 | > 70 | > 70
COc1ccnc(C(=O)N[C@H]2COC[C@H](Cc3ccccc3)[C@@H](CCc3ccccc3)[C@H](C)OC2=O)c1OCOC(C)=O [compound 30] | > 70 | > 70 | > 70 | > 70 | – | – | – | –
COc1ccnc(C(=O)N[C@@H]2COC[C@@H](Cc3ccccc3)[C@H](COCC(C)C)[C@@H](C)OC2=O)c1O [compound 122] | – | – | – | – | < 70 | < 70 | < 70 | < 70
COc1ccnc(C(=O)N[C@H]2COC[C@H](CC3CC3)[C@@H](c3ccccc3)[C@H](C)OC2=O)c1OCOC(=O)C(C)C [compound 102] | > 70 | > 70 | > 70 | > 70 | – | – | – | –
COc1ccnc(C(=O)N[C@H]2COC[C@H](Cc3ccc(C(F)(F)F)cc3)[C@@H](Cc3ccccc3)[C@H](C)OC2=O)c1O [compound 136] | – | – | – | – | > 70 | < 70 | > 70 | > 70
COc1ccnc(C(=O)N[C@H]2COC[C@H](CC3CCCC3)[C@@H](CC3CCCC3)[C@H](C)OC2=O)c1OCOC(C)=O [compound 26] | > 70 | > 70 | > 70 | > 70 | – | – | – | –
C=C(C)COC[C@@H]1[C@@H](Cc2ccccc2)COC[C@H](NC(=O)c2nccc(OC)c2O)C(=O)O[C@H]1C [compound 120] | – | – | – | – | < 70 | < 70 | < 70 | < 70
COc1ccnc(C(=O)N[C@H]2COC[C@H](CC3CC3)[C@@H](c3ccccc3)[C@H](C)OC2=O)c1O [compound 154] | – | – | – | – | > 70 | > 70 | > 70 | > 70
COc1ccnc(C(=O)N[C@H]2COC[C@H](Cc3ccccc3)[C@@H](Cc3ccc(OC(F)(F)F)cc3)[C@H](C)OC2=O)c1OCOC(=O)C(C)C [compound 48] | > 70 | > 70 | > 70 | < 70 | – | – | – | –
COc1ccnc(C(=O)N[C@H]2COC[C@H](CCCc3ccccc3)[C@@H](Cc3ccc(OC(F)(F)F)cc3)[C@H](C)OC2=O)c1OCOC(C)=O [compound 76] | > 70 | > 70 | > 70 | < 70 | – | – | – | –
CCOCC(=O)OCOc1c(OC)ccnc1C(=O)N[C@H]1COC[C@H](Cc2ccccc2)[C@@H](C2CCCC2)[C@H](C)OC1=O [compound 40] | > 70 | > 70 | > 70 | > 70 | – | – | – | –
CCOCC(=O)OCOc1c(OC)ccnc1C(=O)N[C@H]1COC[C@H](CC2CC2)[C@@H](c2ccccc2)[C@H](C)OC1=O [compound 103] | > 70 | > 70 | > 70 | > 70 | – | – | – | –
COc1ccnc(C(=O)N[C@H]2COC[C@H](CCCc3ccccc3)[C@@H](Cc3ccccc3)[C@H](C)OC2=O)c1OCOC(=O)C(C)C [compound 43] | > 70 | > 70 | > 70 | < 70 | – | – | – | –
COc1ccnc(C(=O)N[C@H]2COC[C@H](Cc3ccccc3)[C@@H](Cc3ccc(OC(F)(F)F)cc3)[C@H](C)OC2=O)c1OC(C)=O [compound 50] | > 70 | < 70 | > 70 | < 70 | – | – | – | –
COc1ccnc(C(=O)N[C@H]2COC[C@H](CCCc3ccccc3)[C@@H](Cc3ccccc3)[C@H](C)OC2=O)c1OC(C)=O [compound 41] | > 70 | > 70 | > 70 | > 70 | – | – | – | –
COc1ccnc(C(=O)N[C@H]2COC[C@H](Cc3ccccc3)[C@@H](CCc3ccccc3)[C@H](C)OC2=O)c1O [compound 128] | – | – | – | – | > 70 | > 70 | > 70 | < 70
COc1ccnc(C(=O)N[C@H]2COC[C@H](CC3CC3)[C@@H](Cc3ccc(F)cc3)[C@H](C)OC2=O)c1O [compound 153] | – | – | – | – | > 70 | > 70 | > 70 | > 70
COc1ccnc(C(=O)N[C@H]2COC[C@H](CCC(C)C)[C@@H](CCc3ccccc3)[C@H](C)OC2=O)c1OCOC(C)=O [compound 34] | > 70 | > 70 | > 70 | > 70 | – | – | – | –
COc1ccnc(C(=O)N[C@H]2COC[C@H](CCC(C)C)[C@@H](C3CCCC3)[C@H](C)OC2=O)c1OCOC(=O)C(C)C [compound 94, ((2-(((3S,7R,8R,9S)-8-cyclopentyl-7-isopentyl-9-methyl-2-oxo-1,5-dioxonan-3-yl)carbamoyl)-4-methoxypyridin-3-yl)oxy)methyl isobutyrate] | > 70 | > 70 | > 70 | < 70 | – | – | – | –
CCC[C@H]1COC[C@H](NC(=O)c2nccc(OC)c2O)C(=O)O[C@@H](C)[C@@H]1c1ccccc1 [compound 152] | – | – | – | – | > 70 | > 70 | > 70 | > 70
CCOCC(=O)OCOc1c(OC)ccnc1C(=O)N[C@H]1COC[C@H](Cc2ccccc2)[C@@H](CCC(C)C)[C@H](C)OC1=O [compound 83] | > 70 | > 70 | > 70 | > 70 | – | – | – | –
CCCC[C@@H]1[C@@H](Cc2ccccc2)COC[C@H](NC(=O)c2nccc(OC)c2OCOC(C)=O)C(=O)O[C@H]1C [compound 14] | – | – | – | – | < 70 | < 70 | < 70 | < 70
